Experimental data as given in patent US20140316119A1, “COMPOSITION FOR IMPROVING BIOMETABOLISM PARAMETER” (MATSUTANI CHEMICAL INDUSTRY CO., LTD., priority 2011, published 2014).

What was measured:
γ-GTP, ALT, and ALP = assay: Four-week D-psicose ingestion tests (Example 2); format: in vivo, human; settings: 15 g once per day, after 2 weeks
Method: Four-week D-psicose ingestion tests were conducted with recruited healthy individuals (8 individuals with a […]) and diabetes borderline subjects (6 individuals with fasting glucose levels of 110 to 126 mg/dl, or HbA1c of 5.9 to 6.5%) (all subjects, males and females, were at least 20 years of age at the time of informed consent). Each subject ingested 15 g of D-psicose once per day. The D-psicose was purchased from Izumoring Co., Ltd. The subjects were tested after 0, 2, and 4 weeks from the start of the ingestion, and after 4 weeks from the end of the ingestion period (week 8, post-ingestion observation). The subjects were fasted after the dinner served on the day before the testing date. The subjects were measured for γ-GTP, ALT, and ALP by using the service of BML Inc. A paired t-test was used for statistical comparison before and after the ingestion. In the figure, significant difference is given by *:0.05<P or **:0.01<P.

[1] = test system: γ-GTP, ALT, ALP, and a uric acid level; assay: Clinical trial, 12-week D-psicose ingestion (Example 1); format: in vivo, human
Method: Increasing incidence of lifestyle-related diseases, diabetes in particular, has been a problem in Japan. Clinical trials were conducted with recruited diabetic subjects, and biometabolism parameter changes due to D-psicose were investigated. The recruited subjects consisted of diabetes borderline subjects (12 subjects with fasting glucose levels of 110 to 126 mg/dl), and diabetes patients (6 type 2 diabetes patients undergoing drug treatment) (all subjects, males and females, were at least 20 years of age at the time of informed consent). Five grams of D-psicose was ingested per meal for 12 weeks. The D-psicose was purchased from Izumoring Co., Ltd. The subjects were tested after 0, 2, 4, 8, and 12 weeks from the start of the ingestion, and after 4 weeks from the end of the ingestion period (week 16, post-ingestion observation). The subjects were fasted after the dinner served on the day before the testing date. The subjects were measured for γ-GTP, ALT, ALP, and a uric acid level using the service of BML Inc. A paired t-test was used for statistical comparison before and after the ingestion. In the figure, significant difference is given by *:0.05<P or **:0.01<P.

[2] = oral ingestion, cited from earlier work
[3] = healthy individuals + diabetes borderline subjects
[4] = stratified: healthy individuals, P<0.01

O=C(CO)[C@H](O)[C@H](O)[C@H](O)CO [D-psicose]
significant decrease: ALP change (γ-GTP, ALT, and ALP; [4]) | γ-GTP change (γ-GTP, ALT, and ALP; [4]) | ALP change ([1]; all subjects, 5 g D-psicose per meal, after 2 weeks from the ingestion) | uric acid level change ([1]; all subjects, 5 g per meal, after two weeks from the ingestion) | uric acid level change ([1]; stratified: diabetes borderline patients, after 2 weeks) | γ-GTP change ([1]; stratified: diabetes borderline patients, after 4 weeks, P<0.01) | γ-GTP change ([1]; stratified: diabetes patients, after 8 weeks, P<0.01)
70%: share of ingested D-psicose directly absorbed but excreted into urine [2]
30%: share of ingested D-psicose that reaches the large intestine, excreted into feces ([2]; essentially not utilized by enteric bacteria)
lack of significant decrease: ALT change ([1]; 5 g per meal for 12 weeks)
significantly decreased: ALP change (γ-GTP, ALT, and ALP; [3]) | ALT change (γ-GTP, ALT, and ALP; [3]) | γ-GTP change (γ-GTP, ALT, and ALP; [3]) | γ-GTP change ([1]; all subjects (diabetes borderline + diabetes patients), 5 g D-psicose per meal, after 4 weeks from the ingestion, paired t-test vs before ingestion) | ALP change ([1]; stratified: diabetes borderline patients, after 2 weeks, P<0.05) | ALP change ([1]; stratified: diabetes patients, after 2 weeks, P<0.05)
